Measurements reported in patent US10117919B2, “Methods and materials for generating CD8+ T cells having the ability to recognize cancer cells expressing a HER2/neu polypeptide” (Mayo Foundation for Medical Education and Research, priority 2012, dated 2018).

Columns and labels:
immunoproteasome = experiment: In vitro cleavage of HER-2/neu 19-mer by purified immunoproteasome; type: biochemical; settings: from HER-2/neu 19-mer (364-382)
Method: (§1) The following was performed to determine if E75 is processed from HER-2/neu or HER-2/neu fragments by multi-subunit enzymes referred to as the proteasome and immunoproteasome, which are required for loading of polypeptide onto MHC class I molecules. […] (SEQ ID NO:3), was synthesized. […] The 19-mer was then cleaved using purified 20S proteasome and immunoproteasome.

20S proteasome = experiment: In vitro cleavage of HER-2/neu 19-mer by purified 20S proteasome; type: biochemical; settings: from HER-2/neu 19-mer (364-382)
Method: as §1

[1] = test system: 20S proteasome and immunoproteasome; experiment: Processing of longer HER-2/neu polypeptides (19-mer, 23-mer) treated with the proteasomes; type: biochemical
Method: as §1

tumor cells = experiment: Tumor cell lysis by generated T cells in presence of neutralizing HLA-A2 or HLA-ABC antibodies; type: cell-based, human
[2] = test system: HLA-A2 / HLA-ABC restricted T cell reactivity; experiment: IFN-γ release of generated T cells in presence of neutralizing HLA-A2 or HLA-ABC antibodies; type: cell-based, human; settings: versus control isotype matched antibody
breast cancer cell lines = experiment: Cytotoxic T cell assay: lysis of breast cancer cells by polypeptide-generated CD8+ T cells; type: cell-based, human; settings: compared to CD8+ T cells generated using p369-377
Method: Another in vitro assay was performed to measure lysis of the breast cancer cells by the T cells.

[3] = test system: target cells pulsed with polypeptide; experiment: IFN-γ ELIspot of polypeptide-generated CD8+ T cell lines against polypeptide-pulsed target cells; type: cell-based, human
[4] = test system: breast cancer cell lines that express varying levels of HER-2/neu; type: cell-based, human

Row | Sequence | Peptide generated by immunoproteasome (immunoproteasome) | Peptide generated by proteasome (20S proteasome) | also measured
1 | AFLPESFD (homo sapiens) | + | + | 
2 | FAGCKKIFGS (homo sapiens) | + | + | 
3 | FAGCKKIFGSL (homo sapiens) [HER-2/neu amino acids 364-374] | + | + | 
4 | FAGCKKIFGSLAFLPESFD (homo sapiens) [19-mer polypeptide, substrate of the cleavage assay] |  |  | Processing by purified 20S proteasome and immunoproteasome ([1]; 19-mer FAGCKKIFGSLAFLPESFD as substrate): consistently found to be processed into several other shorter polypeptides
5 | FGSLAFLPES (homo sapiens) [HER-2/neu amino acids 371-380] | + | + | 
6 | FGSLAFLPESF (homo sapiens) [HER-2/neu amino acids 371-381] | + | + | 
7 | GSLAFLPESF (homo sapiens) [HER-2/neu amino acids 372-381] | + | + | 
8 | GSLAFLPESFD (homo sapiens) | + | + | 
9 | LAFLPESFD (homo sapiens) | + | + | 
10 | SLAFLPESF (homo sapiens) | + | + | 
11 | SLAFLPESFD (homo sapiens) | + | + | Lysis of tumor cells by generated T cells with neutralizing HLA-A2 or HLA-ABC antibody (tumor cells): blocked lysis of tumor cells; Release from 23-mer treated with the proteasomes ([1]; 23-mer containing p373-382 as substrate): released from the 23-mer; Reactivity (IFN-γ release) of generated T cells with neutralizing HLA-A2 or HLA-ABC antibody [2]: markedly suppressed; Lysis of breast cancer cell lines by CD8+ T cells generated with the polypeptide (breast cancer cell lines): recognized and lysed all tested breast cancer cell lines at much higher levels; Recognition of polypeptide-pulsed target cells by T cells generated with the polypeptide [3]: recognized target cells pulsed with either the p373-382 polypeptide or the p369-377 polypeptide; Recognition of breast cancer cells by CD8+ T cells generated with the polypeptide [4]: able to recognize the breast cancer cells at much higher levels
